Measurements as given in patent US9034921B2, “Diphenylmethane derivatives as SGLT2 inhibitors” (GREEN CROSS CORPORATION, priority 2011, dated 2015).

What follows are compounds tested against human SGLT2 (Homo sapiens (Human), UniProt P31639) (assay: Inhibitory effects on human SGLT2 activities (14C-AMG uptake, sodium-dependent glucose transport assay)). Details: CHO cells stably expressing hSGLT2, 37° C., 2 h, single determinations.
Format: cell-based
How it was run: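 CHO cells stably expressing hSGLT2 were preincubated 10 min at 37 °C in choline (Na+-free) buffer, then exposed 2 h at 37 °C to compound in Na+ uptake buffer with 8 μM 14C-AMG and 1 mM unlabeled AMG. Radioactivity was scintillation counted; IC50 came from nonlinear regression.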

Chain of human SGLT2 (P31639 whole entry): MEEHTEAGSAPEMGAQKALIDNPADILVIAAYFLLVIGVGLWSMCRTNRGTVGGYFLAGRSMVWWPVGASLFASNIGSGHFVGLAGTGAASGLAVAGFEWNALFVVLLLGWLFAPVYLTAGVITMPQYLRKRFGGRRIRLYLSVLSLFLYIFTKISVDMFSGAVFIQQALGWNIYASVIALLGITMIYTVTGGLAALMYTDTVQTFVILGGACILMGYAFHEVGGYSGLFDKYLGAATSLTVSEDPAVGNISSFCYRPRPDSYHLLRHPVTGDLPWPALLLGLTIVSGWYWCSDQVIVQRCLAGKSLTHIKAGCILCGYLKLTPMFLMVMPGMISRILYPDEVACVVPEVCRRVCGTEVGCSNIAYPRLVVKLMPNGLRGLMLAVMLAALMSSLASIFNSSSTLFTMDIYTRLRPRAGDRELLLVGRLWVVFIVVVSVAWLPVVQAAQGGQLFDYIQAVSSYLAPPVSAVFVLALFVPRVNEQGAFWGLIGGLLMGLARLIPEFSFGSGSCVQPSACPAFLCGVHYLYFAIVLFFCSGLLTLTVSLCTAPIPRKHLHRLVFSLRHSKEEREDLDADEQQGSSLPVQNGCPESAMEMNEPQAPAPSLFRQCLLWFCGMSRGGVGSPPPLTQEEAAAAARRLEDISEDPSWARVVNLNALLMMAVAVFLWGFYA

| IC50 [nM] | SMILES |
| --- | --- |
| 0.721 | CCc1ccc(Cc2cc([C@@H]3O[C@H](CO)[C@@H](O)[C@H](O)[C@H]3O)c3c(c2Cl)OCC3C)cc1 (stereo partly drawn) [Example E153, (2S,3R,4R,5S,6R)-2-(7-Chloro-6-(4-ethylbenzyl)-3-methyl-2,3-dihydrobenzofuran-4-yl)-6-(hydroxymethyl)tetrahydro-2H-pyran-3,4,5-triol] |
| 1.01 | CSc1ccc(Cc2cc([C@@H]3O[C@H](CO)[C@@H](O)[C@H](O)[C@H]3O)c3c(c2Cl)CCCO3)cc1 [Example E154, (2S,3R,4R,5S,6R)-2-(5-Chloro-6-(4-(methylthio)benzyl)chroman-8-yl)-6-(hydroxymethyl)tetrahydro-2H-pyran-3,4,5-triol] |
| 0.881 | OC[C@H]1O[C@@H](c2cc(Cc3ccc(C4CC4)cc3)c(Cl)c3c2CCCO3)[C@H](O)[C@@H](O)[C@@H]1O [Example E155, (2S,3R,4R,5S,6R)-2-(8-Chloro-7-(4-cyclopropylbenzyl)chroman-5-yl)-6-(hydroxymethyl)tetrahydro-2H-pyran-3,4,5-triol] |
| 2.09 | COc1ccc(Cc2cc([C@@H]3O[C@H](CO)[C@@H](O)[C@H](O)[C@H]3O)c3c(c2Cl)OCCC3)cc1 [Example E156, (2S,3R,4R,5S,6R)-2-(8-Chloro-7-(4-methoxybenzyl)chroman-5-yl)-6-(hydroxymethyl)tetrahydro-2H-pyran-3,4,5-triol] |
| 1.28 | CCOc1ccc(Cc2cc([C@@H]3O[C@H](CO)[C@@H](O)[C@H](O)[C@H]3O)c3c(c2Cl)OCCC3)cc1 [Example E157, (2S,3R,4R,5S,6R)-2-(8-Chloro-7-(4-ethoxybenzyl)chroman-5-yl)-6-(hydroxymethyl)tetrahydro-2H-pyran-3,4,5-triol] |
| 0.366 | OC[C@H]1O[C@@H](c2cc(Cc3ccc(C4CC4)cc3)c(Cl)c3c2OCO3)[C@H](O)[C@@H](O)[C@@H]1O [Example E158, (2S,3R,4R,5S,6R)-2-(7-Chloro-6-(4-cyclopropylbenzyl)benzo[d][1,3]dioxol-4-yl)-6-(hydroxymethyl)tetrahydro-2H-pyran-3,4,5-triol] |
| 0.872 | CC(C)c1ccc(Cc2cc([C@@H]3O[C@H](CO)[C@@H](O)[C@H](O)[C@H]3O)c3c(c2Cl)OCO3)cc1 [Example E159, (2S,3R,4R,5S,6R)-2-(7-Chloro-6-(4-isopropylbenzyl)benzo[d][1,3]dioxol-4-yl)-6-(hydroxymethyl)tetrahydro-2H-pyran-3,4,5-triol] |
| 1.15 | COc1ccc(Cc2cc([C@@H]3O[C@H](CO)[C@@H](O)[C@H](O)[C@H]3O)c3c(c2Cl)OCO3)cc1 [Example E161, (2S,3R,4R,5S,6R)-2-(7-Chloro-6-(4-methoxybenzyl)benzo[d][1,3]dioxol-4-yl)-6-(hydroxymethyl)tetrahydro-2H-pyran-3,4,5-triol] |
| 0.404 | CCc1ccc(Cc2cc([C@@H]3O[C@H](CO)[C@@H](O)[C@H](O)[C@H]3O)c3c(c2Cl)OCO3)cc1 [Example E162, (2S,3R,4R,5S,6R)-2-(7-Chloro-6-(4-ethylbenzyl)benzo[d][1,3]dioxol-4-yl)-6-(hydroxymethyl)tetrahydro-2H-pyran-3,4,5-triol] |
| 0.651 | OC[C@H]1O[C@@H](c2cc(Cc3ccc(C4CC4)cc3)c(Cl)c3c2OCCO3)[C@H](O)[C@@H](O)[C@@H]1O [Example E163, (2S,3R,4R,5S,6R)-2-(8-Chloro-7-(4-cyclopropylbenzyl)-2,3-dihydrobenzo[b][1,4]dioxin-5-yl)-6-(hydroxymethyl)tetrahydro-2H-pyran-3,4,5-triol] |
| 1.28 | CCOc1ccc(Cc2cc([C@@H]3O[C@H](CO)[C@@H](O)[C@H](O)[C@H]3O)c3c(c2Cl)OCCCO3)cc1 [Example E164, (2S,3R,4R,5S,6R)-2-(9-Chloro-8-(4-ethoxybenzyl)-3,4-dihydro-2H-benzo[b][1,4]dioxepin-6-yl)-6-(hydroxymethyl)tetrahydro-2H-pyran-3,4,5-triol] |
| 1.08 | CCc1ccc(Cc2cc([C@@H]3O[C@H](CO)[C@@H](O)[C@H](O)[C@H]3O)c3c(c2Cl)OCCCO3)cc1 [Example E165, (2S,3R,4R,5S,6R)-2-(9-Chloro-8-(4-ethylbenzyl)-3,4-dihydro-2H-benzo[b][1,4]dioxepin-6-yl)-6-(hydroxymethyl)tetrahydro-2H-pyran-3,4,5-triol] |
| 4.22 | OC[C@H]1O[C@@H](c2cc(Cc3ccccc3)c(Cl)c3c2CCO3)[C@H](O)[C@@H](O)[C@@H]1O [Example E166, (2S,3R,4R,5S,6R)-2-(6-Benzyl-7-chloro-2,3-dihydrobenzofuran-4-yl)-6-(hydroxymethyl)tetrahydro-2H-pyran-3,4,5-triol] |
| 0.96 | CC(=O)c1ccc(Cc2cc([C@@H]3O[C@H](CO)[C@@H](O)[C@H](O)[C@H]3O)c3c(c2Cl)OCC3)cc1 [Example E168, 1-(4-((7-Chloro-4-((2S,3R,4R,5S,6R)-3,4,5-trihydroxy-6-(hydroxymethyl)tetrahydro-2H-pyran-2-yl)-2,3-dihydrobenzofuran-6-yl)methyl)phenyl)ethanone] |
| 2.12 | CC(O)c1ccc(Cc2cc([C@@H]3O[C@H](CO)[C@@H](O)[C@H](O)[C@H]3O)c3c(c2Cl)OCC3)cc1 (stereo partly drawn) [Example E169, (2S,3R,4R,5S,6R)-2-(7-Chloro-6-(4-(1-hydroxyethyl)benzyl)-2,3-dihydrobenzofuran-4-yl)-6-(hydroxymethyl)tetrahydro-2H-pyran-3,4,5-triol] |
| 1.46 | CC(F)c1ccc(Cc2cc([C@@H]3O[C@H](CO)[C@@H](O)[C@H](O)[C@H]3O)c3c(c2Cl)OCC3)cc1 (stereo partly drawn) [Example E170, (2S,3R,4R,5S,6R)-2-(7-Chloro-6-(4-(1-fluoroethyl)benzyl)-2,3-dihydrobenzofuran-4-yl)-6-(hydroxymethyl)tetrahydro-2H-pyran-3,4,5-triol] |
| 0.366 | C=Cc1ccc(Cc2cc([C@@H]3O[C@H](CO)[C@@H](O)[C@H](O)[C@H]3O)c3c(c2Cl)OCC3)cc1 [Example E171, (2S,3R,4R,5S,6R)-2-(7-Chloro-6-(4-vinylbenzyl)-2,3-dihydrobenzofuran-4-yl)-6-(hydroxymethyl)tetrahydro-2H-pyran-3,4,5-triol] |
| 0.463 | OC[C@H]1O[C@@H](c2cc(Cc3ccc(C4CC4)cc3)c(Cl)c3c2CCO3)[C@H](O)[C@@H](O)[C@@H]1O [Example E172, (2S,3R,4R,5S,6R)-2-(7-Chloro-6-(4-cyclopropylbenzyl)-2,3-dihydrobenzofuran-4-yl)-6-(hydroxymethyl)tetrahydro-2H-pyran-3,4,5-triol] |
| 18.1 | OC[C@H]1O[C@@H](c2cc(Cc3ccc(C4CC4)cc3)c(Cl)c3ccoc23)[C@H](O)[C@@H](O)[C@@H]1O [Example E173, (2S,3R,4R,5S,6R)-2-(4-Chloro-5-(4-cyclopropylbenzyl)benzofuran-7-yl)-6-(hydroxymethyl)tetrahydro-2H-pyran-3,4,5-triol] |
| 574 | CCCc1ccc(Cc2cc([C@@H]3O[C@H](CO)[C@@H](O)[C@H](O)[C@H]3O)c3occc3c2Cl)cc1 [Example E174, (2S,3R,4R,5S,6R)-2-(4-Chloro-5-(4-propylbenzyl)benzofuran-7-yl)-6-(hydroxymethyl)tetrahydro-2H-pyran-3,4,5-triol] |
| 2.03 | CC(C)(O)c1ccc(Cc2cc([C@@H]3O[C@H](CO)[C@@H](O)[C@H](O)[C@H]3O)c3c(c2Cl)OCC3)cc1 [Example E175, (2S,3R,4R,5S,6R)-2-(7-Chloro-6-(4-(2-hydroxypropan-2-yl)benzyl)-2,3-dihydrobenzofuran-4-yl)-6-(hydroxymethyl)tetrahydro-2H-pyran-3,4,5-triol] |
| 1.14 | OC[C@H]1O[C@@H](c2cc(Cc3ccc(C(F)F)cc3)c(Cl)c3c2CCO3)[C@H](O)[C@@H](O)[C@@H]1O [Example E176, (2S,3R,4R,5S,6R)-2-(7-Chloro-6-(4-(difluoromethyl)benzyl)-2,3-dihydrobenzofuran-4-yl)-6-(hydroxymethyl)tetrahydro-2H-pyran-3,4,5-triol] |
| 0.91 | CC(F)(F)c1ccc(Cc2cc([C@@H]3O[C@H](CO)[C@@H](O)[C@H](O)[C@H]3O)c3c(c2Cl)OCC3)cc1 [Example E177, (2S,3R,4R,5S,6R)-2-(7-Chloro-6-(4-(1,1-difluoroethyl)benzyl)-2,3-dihydrobenzofuran-4-yl)-6-(hydroxymethyl)tetrahydro-2H-pyran-3,4,5-triol] |
| 1.16 | Cc1c(Cc2ccc(C3CC3)cc2)cc([C@@H]2O[C@H](CO)[C@@H](O)[C@H](O)[C@H]2O)c2c1OCC2 [Example E178, (2S,3R,4R,5S,6R)-2-(6-(4-Cyclopropylbenzyl)-7-methyl-2,3-dihydrobenzofuran-4-yl)-6-(hydroxymethyl)tetrahydro-2H-pyran-3,4,5-triol] |
| 5.2 | C#CC(C)(O)c1ccc(Cc2cc([C@@H]3O[C@H](CO)[C@@H](O)[C@H](O)[C@H]3O)c3c(c2Cl)OCC3)cc1 (stereo partly drawn) [Example E179, (2S,3R,4R,5S,6R)-2-(7-Chloro-6-(4-(2-hydroxybut-3-yn-2-yl)benzyl)-2,3-dihydrobenzofuran-4-yl)-6-(hydroxymethyl)tetrahydro-2H-pyran-3,4,5-triol] |
| 0.574 | C=C(C)c1ccc(Cc2cc([C@@H]3O[C@H](CO)[C@@H](O)[C@H](O)[C@H]3O)c3c(c2Cl)OCC3)cc1 [Example E180, (2S,3R,4R,5S,6R)-2-(7-Chloro-6-(4-(prop-1-en-2-yl)benzyl)-2,3-dihydrobenzofuran-4-yl)-6-(hydroxymethyl)tetrahydro-2H-pyran-3,4,5-triol] |
| 0.794 | CC(C)c1ccc(Cc2cc([C@@H]3O[C@H](CO)[C@@H](O)[C@H](O)[C@H]3O)c3c(c2Cl)OCC3)cc1 [Example E181, (2S,3R,4R,5S,6R)-2-(7-Chloro-6-(4-isopropylbenzyl)-2,3-dihydrobenzofuran-4-yl)-6-(hydroxymethyl)tetrahydro-2H-pyran-3,4,5-triol] |
| 1.03 | C#Cc1ccc(Cc2cc([C@@H]3O[C@H](CO)[C@@H](O)[C@H](O)[C@H]3O)c3c(c2Cl)OCC3)cc1 [Example E182, (2S,3R,4R,5S,6R)-2-(7-Chloro-6-(4-ethynylbenzyl)-2,3-dihydrobenzofuran-4-yl)-6-(hydroxymethyl)tetrahydro-2H-pyran-3,4,5-triol] |
